Our source for the IC50 and EC50 values is patent publication US20240228476A1, “INHIBITORS OF PROTEIN TYROSINE PHOSPHATASE, COMPOSITIONS, AND METHODS OF USE” (BRISTOL-MYERS SQUIBB COMPANY, priority 2022, published 2024).

Where only a bound is given, the exact number is not on record here.

Experiment [1] concerns the target T1, PTPN2 (Homo sapiens, UniProt P17706).
T1 sequence (P17706 1-415): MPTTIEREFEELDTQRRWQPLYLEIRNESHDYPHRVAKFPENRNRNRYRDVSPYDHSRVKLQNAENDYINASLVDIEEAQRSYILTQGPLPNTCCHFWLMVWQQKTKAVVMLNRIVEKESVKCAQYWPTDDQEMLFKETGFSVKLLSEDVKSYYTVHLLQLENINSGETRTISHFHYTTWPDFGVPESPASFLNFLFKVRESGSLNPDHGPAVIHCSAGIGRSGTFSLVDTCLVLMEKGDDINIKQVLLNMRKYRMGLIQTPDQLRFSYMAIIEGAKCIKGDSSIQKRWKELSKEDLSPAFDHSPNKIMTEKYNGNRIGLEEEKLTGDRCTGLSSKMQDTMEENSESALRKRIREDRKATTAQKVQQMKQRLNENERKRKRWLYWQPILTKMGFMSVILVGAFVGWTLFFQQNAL
Kind of experiment: Phosphatase activity assay using DiFMUP as substrate. It counts as biochemical. On the set-up: purchased MilliporeSigma SRP5075. Conditions: 10 mM DTT, PTPN2 0.15 nM, room temperature, read-out: PTPN2 BCHEM DIFMUP IC50. The method, then: The PTPN2 biochemical assay was performed as follows, a 5× stock solution of human PTPN2 (SRP5075, MilliporeSigma, Burlington, MA) and a 1.25× stock solution of DiFMUP (D6567, ThermoFisher Scientific, Waltham, MA), were prepared in 1× reaction buffer consisting of 50 mM HEPES, pH 7.4, 1 mM EDTA, 150 mM NaCl, 0.2 mg/mL BSA, 100 U/mL catalase and 10 mM DTT. […] of the DiFMUP substrate solution, for a final concentration of […] DiFMUP substrate, was added to a Corning 3574 384-well, white, non-binding surface microtiter plate containing […] of serially diluted test compounds prepared in DMSO. The reactions were started with the addition of […] of the enzyme solution, for a final PTPN2 concentration of 0.15 nM, and monitored every 105 seconds for 60 minutes at λEX 360/λEM 460 in a BioTek Synergy HTX plate reader (Agilent Technologies, Santa Clara, CA) at room temperature. The initial linear portions of the progress curves were fit according to a linear equation to yield the slopes and converted to % inhibition based on a value of 100% activity for the no inhibitor treated control. IC50 values of each compound were obtained by fitting the % inhibition-compound concentration curves using Dotmatics software (Dotmatics, Bishops Stortford, Hertfordshire, England)
(§1) For IC50 data, High DDT concentration and/or DiFMUP substrate assays were used; a skilled artisan may use either assay.

Experiment [2] has as its target T1, PTPN2. Kind of experiment: PTPN2 biochemical assay (PhosphoSens, substrate AQT0264). Conditions: PhosphoSens substrate AQT0264 20 μM, room temperature; read-out: PTPN2 BCHEM IC50. The method, then: A PhosphoSens® kinase assay was performed as described by the vendor (AssayQuant Technologies, Marlborough, MA). Briefly, 1000× solutions of compounds were prepared in DMSO via serial dilution of the 10 mM DMSO stocks using 3-fold intervals in a 384-well reagent plate. 50 nL of the compound dilution series was then added to the corresponding wells of a 384-well assay plate. 40 mL of 1.25× substrate (AQT0264) in 1× assay buffer (50 mM HEPES pH 7.5, 500 μM EGTA, […] MgCl2, 0.01% Brij-35, 1% Glycerol, 1 mM DTT, and 0.2 mg/mL BSA) was transferred to each well of the assay plate to achieve a final substrate concentration of 20 μM. Finally, […] of 5×PTPN2 enzyme stock was added to each well of the assay plate for a final enzyme concentration of […]. Reaction progress curves were collected by sampling fluorescence intensity at the excitation wavelength 360 nm (λex360) and emission wavelength 480 nm (λem480) every 71 seconds for one hour using a Synergy H4 plate reader (BioTek Instruments/Agilent Technologies, Winooski, VT) at room temperature.
as §1

The next experiment deals with phospho-STAT1 (Tyr701). Kind of experiment: Phospho-STAT1 (Tyr701) HTRF assay in B16-F10 cells. Conditions: mouse IFN-gamma 100 ng/ml, 1 hour, read-out: pSTAT1 HTRF B16 EC50. The experiment is classed as cell-based. On the procedure: B16-F10 cells (ATCC, Manassas, VA, #CRL-6475) were cultured in DMEM growth medium (ThermoFisher Scientific, Waltham, MA, #11995-040) supplemented with 10% heat inactivated FBS (ThermoFisher Scientific, #16140-071) and 1% pen/strep (ThermoFisher Scientific, #15140-122). The cells were seeded into a white opaque 384-well tissue culture treated microplate (PerkinElmer, Waltham, MA, #6007688) at a density of 10,000 cells/well in 20 uL total volume and incubated overnight at 37 C and 5% CO2. 30 nL of compounds dissolved in DMSO were then transferred from a source plate into target wells with the Echo650 acoustic liquid handler (Beckman Coulter, Indianapolis, IN). Negative control wells received 30 nL of DMSO only (0.15% final concentration). Plates were returned to the incubator for 1 hour and then cells treated with either 5 uL of growth medium or 5 uL of growth medium containing 500 ng/ml of recombinant mouse IFN-gamma protein (R&D Systems, Minneapolis, MN, #485-MI/CF, 100 ng/ml final concentration) using the Assist automated pipetting platform (INTEGRA Biosciences, Hudson, NH). Plates were incubated at 37 C for 1 hour and assayed for phosphorylated STAT1 protein levels with the phospho-STAT1 (Tyr701) HTRF kit (Cisbio, Bedford, MA, #63ADK026PEH) according to manufacturer's instructions. HTRF signal intensity was collected with the En Vision 2105 plate reader (PerkinElmer) 24 hours later and analyzed with the Dotmatics software platform to calculate compound IC50 values.

The next experiment relates to B16-F10 cells. Kind of experiment: Cell proliferation assay (CellTiter-Glo) in B16-F10 cells with IFN-gamma. Conditions: 120 h, mouse IFN-gamma 10 ng/mL, read-out: PTPN2 Prolif 5d B16F10 EC50. It counts as cell-based. The method, then: B16-F10 cells (ATCC, Manassas, VA, #CRL-6475) were cultured in DMEM growth medium (ThermoFisher Scientific, Waltham, MA, #11995-040) supplemented with 10% heat inactivated FBS (ThermoFisher Scientific, #16140-071) and 1% pen/strep (ThermoFisher Scientific, #15140-122). The cells were seeded into two white opaque 384-well tissue culture treated microplates (PerkinElmer, Waltham, MA, #6007688) at a density of 100 cells/well in 20 uL total volume and incubated overnight at 37 C and 5% CO2. 30 nL of compounds dissolved in DMSO were then transferred from a source plate into target wells with the Echo650 acoustic liquid handler (Beckman Coulter, Indianapolis, IN). Negative control wells received 30 nL of DMSO only (0.15% final concentration). Plates were returned to the incubator for 1 hour and then cells treated with either 5 uL of growth medium or 5 uL of growth medium containing 50 ng/ml of recombinant mouse IFN-gamma protein (R&D Systems, Minneapolis, MN, #485-MI/CF, 10 ng/mL final concentration) using the Assist automated pipetting platform (INTEGRA Biosciences, Hudson, NH). Plates were incubated at 37 C for 4 days and cell proliferation assayed with the CellTiter-Glo reagent (Promega, Madison, WI, #G7573, 25 uL per well). […] Off-target compound mediated cytotoxicity was identified by checking for growth inhibition in the absence of IFNg.
Background: ATP-based viability assays read luminescence as a measure of living cells.

In general, IC50 refers to the concentration that inhibits the measured activity by half. The EC50 is the concentration at which the effect is half-maximal.

As for `O=C1CN(c2c(O)cc(CNc3cncc(C(F)(F)F)c3)cc2F)S(=O)(=O)N1` [EXAMPLE 7, 5-[2-fluoro-6-hydroxy-4-[[[5-(trifluoromethyl)-3-pyridyl]amino]methyl]phenyl]-1,1-dioxo-1,2,5-thiadiazolidin-3-one], the IC50 came to 100 nM on PTPN2 [1] and 40 nM on PTPN2 [2]. Further, the EC50 in the experiment with phospho-STAT1 (Tyr701) is 2300 nM; with B16-F10 cells, 3130 nM.
For the compound `CCN(Cc1cc(O)c(N2CC(=O)NS2(=O)=O)c(F)c1)c1nc(C)cc(-c2ccccc2C#N)n1` [EXAMPLE 14, 2-[2-[ethyl-[[3-fluoro-5-hydroxy-4-(1,1,4-trioxo-1,2,5-thiadiazolidin-2-yl)phenyl]methyl]amino]-6-methyl-pyrimidin-4-yl]benzonitrile], the IC50 at PTPN2 [1] was determined as 490 nM; at PTPN2 [2], 210 nM. Further, the half-maximal effective concentration (EC50) in the experiment on phospho-STAT1 (Tyr701) and with B16-F10 cells was more than 15000 nM in each case.
On to `O=C1CN(c2c(O)cc(CNc3ccc(-c4ccccc4)nc3)cc2F)S(=O)(=O)N1` [EXAMPLE 6, 5-[2-fluoro-6-hydroxy-4-[[(6-phenyl-3-pyridyl)amino]methyl]phenyl]-1,1-dioxo-1,2,5-thiadiazolidin-3-one], for which the IC50 at PTPN2 [1] came to 400 nM; at PTPN2 [2] it was 70 nM. Further, the EC50 in the experiment on phospho-STAT1 (Tyr701) was 2560 nM; with B16-F10 cells, 4240 nM.
`Cc1cc(NCc2cc(O)c(N3CC(=O)NS3(=O)=O)c(F)c2)nc(C)n1` [EXAMPLE 17, 5-[4-[[(2,6-dimethylpyrimidin-4-yl)amino]methyl]-2-fluoro-6-hydroxy-phenyl]-1,1-dioxo-1,2,5-thiadiazolidin-3-one]: the concentration for half-maximal inhibition (IC50) at PTPN2 [1] came to 50 nM; at PTPN2 [2] it was 20 nM. The EC50 is 1880 nM in the experiment on phospho-STAT1 (Tyr701) and 2210 nM in the experiment on B16-F10 cells.
With `COc1cncc(NCc2cc(O)c(N3CC(=O)NS3(=O)=O)c(F)c2)n1` [EXAMPLE 23, 5-[2-fluoro-6-hydroxy-4-[[(6-methoxypyrazin-2-yl)amino]methyl]phenyl]-1,1-dioxo-1,2,5-thiadiazolidin-3-one], the IC50 at PTPN2 [1] is 20 nM; on PTPN2 [2] it was 10 nM. In addition, the concentration giving a half-maximal response (EC50) is 1920 nM in the experiment on phospho-STAT1 (Tyr701) and 1550 nM in the experiment on B16-F10 cells.
Turning to `CN(C)c1ccc(NCc2cc(O)c(N3CC(=O)NS3(=O)=O)c(F)c2)cn1` [EXAMPLE 1, 5-[4-[[[6-(dimethylamino)-3-pyridyl]amino]methyl]-2-fluoro-6-hydroxy-phenyl]-1,1-dioxo-1,2,5-thiadiazolidin-3-one], the IC50 at PTPN2 [1] was 130 nM; at PTPN2 [2], 20 nM. Besides, the half-maximal effective concentration (EC50) in the experiment on phospho-STAT1 (Tyr701) was 420 nM; in the experiment with B16-F10 cells it was 900 nM.
The like results for `Cc1ccnc(C)c1NCc1cc(O)c(N2CC(=O)NS2(=O)=O)c(F)c1` [EXAMPLE 3, 5-[4-[[(2,4-dimethyl-3-pyridyl)amino]methyl]-2-fluoro-6-hydroxy-phenyl]-1,1-dioxo-1,2,5-thiadiazolidin-3-one] were, in that order, 60 nM, 90 nM, 6160 nM and 5370 nM.
Taken in the same sequence, the figures for `COc1ncc(C)nc1NCc1cc(O)c(N2CC(=O)NS2(=O)=O)c(F)c1` [EXAMPLE 20, 5-[2-fluoro-6-hydroxy-4-[[(3-methoxy-6-methyl-pyrazin-2-yl)amino]methyl]phenyl]-1,1-dioxo-1,2,5-thiadiazolidin-3-one] were 11100 nM, 70 nM, more than 15000 nM and more than 15000 nM.
With `Cc1cncc(NCc2cc(O)c(N3CC(=O)NS3(=O)=O)c(F)c2)n1` [EXAMPLE 16, 5-[2-fluoro-6-hydroxy-4-[[(6-methylpyrazin-2-yl)amino]methyl]phenyl]-1,1-dioxo-1,2,5-thiadiazolidin-3-one], the figures for the half-inhibitory concentration (IC50) on PTPN2 [1] and at PTPN2 [2] were 30 nM and 1 nM, respectively. In addition, the figures for the 50% effective concentration (EC50) with phospho-STAT1 (Tyr701) and in the experiment on B16-F10 cells were 690 nM and 1730 nM, respectively.
